Experiment [1] has as its system MCF-7 cells. Conditions: cited from earlier work; for SI value: on MCF-7.
Another experiment deals with HL-60 cells. In words: MTT cell viability assay, HL-60. Particulars: Homo sapiens, HL-60, MTT. The experiment is classed as cell-based. On the procedure: (§1) Promyelocytic leukemia HL60, hepatoblastoma HepG2, breast cancer MCF-7 and MDA-MB-231 cells were purchased from ATCC (USA) and cultured in RPMI-1640 media (Sigma, USA), supplemented with 10% fetal bovine serum (FBS) (PAA, USA). Normal epithelial MCF-10A cells (ATCC, USA) was maintain in DMEM-F12 (Sigma, USA) supplemented with hydrocortisone (0.5 μg/mL), insulin (10 μg/mL), human epidermal growth factor (hEGF) (20 ng/mL) (Sigma, USA) and 10% FBS (PAA, USA).
(§2) MTT cell viability assay was used to evaluate the effect of DK1 on viability of HL-60, HepG2, MCF-7, MDA-MB-231 and MCF-10A cells. Briefly, each type of cells (8 × 10^4cells/well) was seeded in 96-well plate in 37 °C CO2 incubator overnight. Then, DK1 was added at concentration ranging between 200 and 3.125 µM by twofold serial dilution. Untreated control was prepared simultaneously. After that, the cells were incubated for 24, 48 and 72 h at 37 °C in 5% CO2 incubator. After the incubation period, all well was added with 20 μL of MTT solution (5 mg/mL) and further incubated for 3 h. Subsequently, 170 μL of supernatant from each well was discarded, 100 μL of dimethyl sulfoxide (DMSO) was added to solubilize the purple formazan crystal and the absorbance was measured at a wavelength of 570 nm by Enzyme-linked immunosorbent assay (ELISA) plate reader (Bio-tek instruments, USA). All cell lines were assayed for three biological replicates each with triplicates. Percentage of cell viability was calculated using the following formula: Cell viability%=OD sample/OD control×100%
(§3) IC50 value (concentration of DK1 that reduce 50% of cell viability compared to control cell) was determined from the graph of cell viability (%) vs DK1 concentration. Subsequently, selective index, which indicating selectivity of DK1 against cancerous and normal breast cell lines, was calculated by: Selective indexSI=IC50of DK1on normal MCF-10A cell line/IC50on breast cancerous cell lineHL60/HepG2/MCF-7/MDA-MB-231
On the technique in general: Tetrazolium dyes change colour on reduction, which living cells bring about.

For experiment [2], the system named is PLK1, p21 and WEE-1 expression in MCF-7 cells. In words: qRT-PCR of cell cycle related genes. Conditions: MCF-7, curcumin 30 µM, 72 h. Background: Real-time PCR tracks product formation cycle by cycle.
Experiment [3] deals with MCF-7 cells. As to the kind of experiment: Flow cytometry AnnexinV-FITC/PI apoptosis analysis. The experiment is classed as cell-based, human. On the procedure:
Apoptosis of DK1 treated MCF-7 was compared with the control cell by Flow cytometry AnnexinV-FITC/PI apoptosis assay. Briefly, harvested cells were resuspended in 100 μL of 1× binding buffer and stained with 5 μL each of AnnexinV-FITC and propidiumiodide. After 15 min of incubation, the cells were added with 400 μL of 1× binding buffer and subjected to BD FACS Calibur flow cytometer analysis using BD Cell Quest Pro software (Becton–Dickinson, USA).
For orientation: Flow cytometry measures light scatter and fluorescence of single cells or particles in a stream.

The next experiment concerns MCF-10A cells. As to the kind of experiment: MTT cell viability assay, normal MCF-10A. The experiment is classed as cell-based. Particulars: Homo sapiens. How it is done: as §1, §2, §3
A further experiment has as its system HepG2 cells. As to the kind of experiment: MTT cell viability assay, HepG2. The experiment is classed as cell-based. Conditions: Homo sapiens. How it is done:
as §1, §2, §3

For experiment [4], the system named is MCF-7 cells. In words: MTT cell viability assay, MCF-7. The experiment is classed as cell-based, human. Particulars: for IC50: Homo sapiens, MCF7, MCF-7, MTT. How it is done:
as §1, §2, §3

A further experiment relates to MDA-MB-231 cells. As to the kind of experiment: MTT cell viability assay, MDA-MB-231. Particulars: for IC50: Homo sapiens, MDA-MB-231, MTT. The experiment is classed as cell-based, human. How it is done: as §1, §2, §3
A further experiment has as its system p53 in MCF-7 cells. In words: Western blot analysis of p53. Format: cell-based, human. On the procedure:
Total protein was extracted from harvested cell with Radioimmunoprecipitation assay (RIPA) buffer supplemented with phosphatase inhibitor cocktail (Roche, Canada) and the concentration was quantified by Bradford assay (Sigma, USA). Then, 100 μg of extracted protein was subjected to sodium dodecyl sulfate polyacrylamide gel electrophoresis (SDS-PAGE) (Bio-Rad, USA), transferred to nitrocellulose membrane, block with 0.5% skimmed milk overnight, washed with Tris-buffered saline tween (TBST) buffer and incubated with primary antibodies (anti-CDC2, anti-pCDC2 (Tyr15), anti-p53, and anti-β-actin at a dilution of 1:1000 (Abcam, USA) for 1 h. After that, membranes were washed, incubated with 1:5000 diluted goat anti-rabbit IgG H&L conjugated to […] (Abcam, USA) and developed under chemiluminescence condition (Super Signal West Pico, Pierce, USA) using the ChemiDoc XRS (Bio-Rad, USA). Differential level of evaluated protein in control and DK1 treated MCF-7 was calculated based on the bands intensity analyzed using the Quantity One 1D Analysis software (Bio-rad, USA).

As for 4-hydroxy tamoxifen, the SI in the experiment on MCF-7 cells [1] (normal vs cancerous cell line) is on record as less than 2.

On to `O=C1c2ccccc2C(=O)c2c(O)cc(Br)cc21` [BHAQ, 3-Bromo-1-hydroxy-9,10-anthraquinone], for which the SI value with MCF-7 cells [1] is 2.31.

The term IC50 denotes the concentration needed to halve the response being measured. Low readings indicate higher potency, high ones lower potency. For the compound `COc1cc(/C=C/C(=O)CC(=O)/C=C/c2ccc(O)c(OC)c2)ccc1O` [Curcumin, diferuloylmethane], the half-inhibitory concentration (IC50) in the experiment with HL-60 cells (24 h) is 57 ± 3.75 µM; in the experiment with HL-60 cells (48 h), 29.9 ± 3.11 µM; in the experiment with HL-60 cells (72 h), 21.7 ± 1.76 µM; in the experiment with MCF-10A cells (24 h), 190 ± 3.67 µM; in the experiment on MCF-10A cells (48 h) it was 114 ± 3.57 µM; in the experiment on MCF-10A cells (72 h) it was 100 ± 3.17 µM. The IC50 in the experiment on HepG2 cells (24 h) was found to be 67.9 ± 2.88 µM; with HepG2 cells (48 h), 40.7 ± 2.76 µM; with HepG2 cells (72 h), 24.4 ± 2.25 µM; with MCF-7 cells [4] (24 h), 40.7 ± 3.24 µM; in the experiment on MCF-7 cells [4] (48 h), 36.6 ± 2.31 µM; in the experiment on MCF-7 cells [4] (72 h), 30.2 ± 2.36 µM. Besides, the IC50 was 35.3 ± 4.16 µM in the experiment with MDA-MB-231 cells (24 h), 21.7 ± 1.87 µM with MDA-MB-231 cells (48 h) and 21.7 ± 3.18 µM in the experiment with MDA-MB-231 cells (72 h). In addition, the “deregulation of cell cycle regulation related genes compared to DK1” value in experiment [2] is “lower degree of deregulation”. For the same compound, the “late apoptosis, folds lower than DK1 treatment” value with MCF-7 cells [3] (MCF-7, 72 h, curcumin 30 µM vs DK1 25 µM) worked out at 2.6 folds. The late apoptosis with MCF-7 cells [3] (MCF-7, curcumin 30 µM, 72 h, AnnexinV/PI) is given as 15%. The “Selective index of MCF-10A/MCF-7” value in the experiment on MCF-7 cells [4] (IC50 MCF-10A / IC50 MCF-7, 24 h) is 4.67; with MCF-7 cells [4] (IC50 MCF-10A / IC50 MCF-7, 72 h) it was 3.33. Further, the “Selective index of MCF-10A/MDA” value was 5.38 in the experiment with MDA-MB-231 cells (IC50 MCF-10A / IC50 MDA-MB-231, 24 h); 5.25 in the experiment with MDA-MB-231 cells (IC50 MCF-10A / IC50 MDA-MB-231, 48 h); 4.63 in the experiment on MDA-MB-231 cells (IC50 MCF-10A / IC50 MDA-MB-231, 72 h). Also, the “deregulation of apoptosis related genes or proteins, particularly p53, compared to DK1” value with p53 in MCF-7 cells (MCF-7, curcumin 30 µM, 72 h) is reported as “lower degree of deregulation”. In addition, in the experiment on p53 in MCF-7 cells (curcumin treated MCF-7), the “significant upregulation of p53” value was “absent”.

Regarding `COc1ccc(/C=C/C(=O)c2c(O)cc(OC)cc2OC)cc1` [flavokawain A], the SI value in the experiment on MCF-7 cells [1] is listed as 3.78.

The values above are taken from PMC5320730, “Synthetic curcumin derivative DK1 possessed G2/M arrest and induced apoptosis through accumulation of intracellular ROS in MCF-7 breast cancer cells” (Cancer Cell International, 2017).
